According to patent publication US20160237012A1, “ANTICANCER AGENTS AND PROCESS OF MAKING THEREOF” (Golden Biotechnology Corporation, priority 2015, published 2016):

What was measured:
Hep 3B = settings: based on the prior published result; read-out: IC50 against Hep 3B; cited from earlier work
MCF-7 = assay: MTT cell viability assay, MCF-7; assay type: cell-based; settings: MCF7, 48 hours, human breast cancer MCF-7, average of at least six independent experiments
Procedure: (§1) Human hepatoma (HepG2 and Hep 3B) and human breast cancer (MCF-7) cell lines were obtained from American Type Culture Collection (Rockville, Md., USA). HepG2 and Hep 3B cells were cultured in MEM alpha medium (Invitrogen/Gibco BRL, Grand Island, N.Y., USA) and MCF-7 cells were cultured in DMEM medium (Invitrogen/Gibco BRL). All cells were cultured at 37° C. in 5% CO2 in culture media supplemented with 10% fetal bovine serum (Invitrogen/Gibco BRL) and 100 U/ml streptomycin and penicillin (Invitrogen/Gibco BRL). For treatment, cells were seeded in six-well plates at 6.25×10^5 cells/well. On the following day, the media were changed to serum-free and the cells were serum-starved for 24 h. […]
(§2) The MTT (3-(4, 5-dimethylthiazol-2-yl)-2,5-diphenyl tetrazolium bromide) cell viability assay is a colorimetric assay system, which measures the reduction of a tetrazolium component (MTT) into an insoluble blue/purple colored formazan product by succinate tetrazolium reductase in mitochondria of viable cells. The absorbance of the complex is read spectrophotometrically and is directly proportional to the number of live or viable cells. […]
(§3) To each of the 96 well plates seeded at a density of 5,000 cells per well, a known concentration of test compounds were added individually. […] The IC50 value was determined by a nonlinear curve fitting program using the GraphPad prism software v 4.01.

Hep3B = assay: MTT cell viability assay, Hep3B; assay type: cell-based; settings: 48 hours, human hepatoma Hep3B, average of at least six independent experiments
Procedure: as §1, §2, §3

HepG2 = assay: MTT cell viability assay, HepG2; assay type: cell-based; settings: 48 hours, human hepatoma HepG2, average of at least six independent experiments
Procedure: as §1, §2, §3

| IC50 (MCF-7) [nM] | IC50 (Hep3B) [nM] | IC50 (HepG2) [nM] | Compound | IC50 (Hep 3B) [nM] |
| --- | --- | --- | --- | --- |
|  |  |  | COC1=C(OC)C(O)C(CC=C(C)CCC=C(C)CCC=C(C)C)C(C)C1=O (stereo not shown) [4-hydroxy-2,3-dimethoxy-6-methyl-5-(3,7,11-trimethyldodeca-2,6,10-trienyl)cyclohex-2-enone] | > 30000 |
| 519 | 325 | 948 | CC(C)=CCC/C(C)=C/CC/C(C)=C/Cc1c(O)ccc(O)c1C [Compound 1] |  |
| 108 | 4.3 | 156 | CC(C)=CCC/C(C)=C/CC/C(C)=C/CC1C(O)C=CC(=O)C1C (stereo not shown) [Compound 3] |  |
